Assay results: patent publication US20260215423A1, “NOVEL CARBOXAMIDE AND SULFONAMIDE PESTICIDAL COMPOUNDS” (SYNGENTA CROP PROTECTION AG, priority 2023, published 2026)

Columns and labels:
Assay type in all cases: in vivo
[1] = test system: Myzus persicae (Green Peach Aphid); assay: Myzus persicae (Green Peach Aphid): Feeding/Contact Activity, sunflower leaf discs; conditions: foliar, 144 h, application rate of 200 ppm, sunflower leaf discs sprayed, aphid population of mixed ages, 6 days after infestation
Experimental: Example B6: Myzus persicae (Green Peach Aphid):Feeding/Contact Activity
Sunflower leaf discs were placed onto agar in a 24-well microtiter plate and sprayed with aqueous test solutions prepared from 10′000 ppm DMSO stock solutions. After drying, the leaf discs were infested with an aphid population of mixed ages. The samples were assessed for mortality 6 days after infestation.

[2] = test system: Myzus persicae (Green Peach Aphid); assay: Myzus persicae (Green Peach Aphid). Intrinsic Activity; conditions: 120 h, test rate of 12 ppm, mixed with sucrose solution, feeding through Parafilm, 5 days after infestation
Excerpt: Example B7: Myzus persicae (Green Peach Aphid). Intrinsic Activity
Test compounds prepared from 10′000 ppm DMSO stock solutions were applied by pipette into 24-well microtiter plates and mixed with sucrose solution. The plates were closed with a stretched Parafilm. A plastic stencil with 24 holes was placed onto the plate and infested pea seedlings were placed directly on the Parafilm. The infested plate was closed with a gel blotting paper and another plastic stencil and then turned upside down. The samples were assessed for mortality 5 days after infestation.

[3] = test system: Myzus persicae (Green Peach Aphid); assay: Myzus persicae (Green Peach Aphid) Feeding/Contact Activity, eggplant leaf discs; conditions: foliar, 144 h, application rate of 200 ppm, eggplant leaf discs sprayed, aphid population of mixed ages, 6 days after infestation, read-out: growth inhibition
Excerpt: Example B8: Myzus persicae (Green Peach Aphid) Feeding/Contact Activity Eggplant leaf discs were placed onto agar in a 24-well microtiter plate and sprayed with aqueous test solutions prepared from 10′000 ppm DMSO stock solutions. After drying, the leaf discs were infested with an aphid population of mixed ages. […]

[4] = test system: Plutella xylostella (Diamond back moth); assay: Plutella xylostella (Diamond back moth); conditions: 192 h, application rate of 200 ppm, artificial diet treated by pipetting, Plutella eggs, 8 days after infestation, read-out: effect in at least one of the two categories (mortality or growth inhibition)
Experimental: After drying, Plutella eggs were pipetted through a plastic stencil onto a gel blotting paper and the plate was closed with it. The samples were assessed for mortality and growth inhibition in comparison to untreated samples 8 days after infestation.

[5] = test system: Tetranychus urticae (Two-Spotted Spider Mite); assay: Tetranychus urticae (Two-Spotted Spider Mite): Feeding/Contact Activity; conditions: foliar, 192 h, application rate of 200 ppm, bean leaf discs sprayed, mite population of mixed ages (mobile stages), 8 days after infestation
Experimental: Example B11: Tetranychus urticae (Two-Spotted Spider Mite):Feeding/Contact Activity
Bean leaf discs on agar in 24-well microtiter plates were sprayed with aqueous test solutions prepared from 10,000 ppm DMSO stock solutions. After drying the leaf discs were infested with a mite population of mixed ages. The samples were assessed for mortality on mixed population (mobile stages) 8 days after infestation.

[6] = test system: Diabrotica balteata (Corn root worm); assay: Diabrotica balteata (Corn root worm); conditions: 96 h, application rate of 200 ppm, maize sprouts sprayed, L2 larvae, 4 days after infestation, read-out: effect in at least one of the two categories (mortality or growth inhibition)
Experimental: Example B2: Diabrotica balteata (Corn root worm)
Maize sprouts placed onto an agar layer in 24-well microtiter plates were treated with aqueous test solutions prepared from 10′000 ppm DMSO stock solutions by spraying. After drying, the plates were infested with L2 larvae (6 to 10 per well). The samples were assessed for mortality and growth inhibition in comparison to untreated samples 4 days after infestation.

[7] = test system: Euschistus heros (Neotropical Brown Stink Bug); assay: Euschistus heros (Neotropical Brown Stink Bug); conditions: 120 h, application rate of 200 ppm, soybean leaves sprayed, N2 nymphs, 5 days after infestation, read-out: effect in at least one of the two categories (mortality or growth inhibition)
Experimental: Example B3: Euschistus heros (Neotropical Brown Stink Bug)
Soybean leaves on agar in 24-well microtiter plates were sprayed with aqueous test solutions prepared from 10′000 ppm DMSO stock solutions. After drying the leaves were infested with N2 nymphs. The samples were assessed for mortality and growth inhibition in comparison to untreated samples 5 days after infestation.

[8] = test system: Frankliniella occidentalis (Western Flower Thrips); assay: Frankliniella occidentalis (Western Flower Thrips): Feeding/Contact Activity, sunflower leaf discs; conditions: foliar, 168 h, application rate of 200 ppm, sunflower leaf discs sprayed, population of mixed ages, 7 days after infestation
Experimental: Example B4: Frankliniella occidentalis (Western Flower Thrips):Feeding/Contact Activity
(§1) Sunflower leaf discs were placed on agar in 24-well microtiter plates and sprayed with aqueous test solutions prepared from […] stock solutions. After drying the leaf discs were infested with a Frankliniella population of mixed ages. The samples were assessed for mortality 7 days after infestation.

[9] = test system: Frankliniella occidentalis (Western Flower Thrips); assay: Frankliniella occidentalis (Western Flower Thrips) Feeding/Contact Activity, bean leaf discs; conditions: foliar, 96 h, application rate of 200 ppm, bean leaf discs sprayed, population of mixed ages, 4 days after infestation, read-out: growth inhibition
Experimental: as §1, with “Example B5: Frankliniella occidentalis (Western Flower Thrips) Feeding/Contact Activity Bean” for “Sunflower”, “4” for “7”

Compound: CCC(=O)NCc1cc(OC[C@H](C)NS(=O)(=O)C(F)(F)F)cnc1Cl [P-1]
- mortality at 200 ppm [1]: ≥ 80%
- mortality at 12 ppm [2]: ≥ 80%

Compound: C[C@@H](COc1ccc(Cl)c(CNC(=O)C2CC2)c1)NS(=O)(=O)C(F)(F)F [P-2]
- mortality at 200 ppm [1]: ≥ 80%
- mortality at 12 ppm [2]: ≥ 80%
- inhibition at 200 ppm [3]: ≥ 80%
- percent effect (mortality or growth inhibition) at 200 ppm [4]: ≥ 80%
- mortality at 200 ppm [5]: ≥ 80%

Compound: CCC(=O)NCc1cc(OC[C@H](C)NS(=O)(=O)C(F)(F)F)ccc1Cl [P-4]
- percent effect (mortality or growth inhibition) at 200 ppm [6]: ≥ 80%
- percent effect (mortality or growth inhibition) at 200 ppm [7]: ≥ 80%
- mortality at 200 ppm [8]: ≥ 80%
- mortality at 200 ppm [1]: ≥ 80%
- mortality at 12 ppm [2]: ≥ 80%
- inhibition at 200 ppm [3]: ≥ 80%
- percent effect (mortality or growth inhibition) at 200 ppm [4]: ≥ 80%
- mortality at 200 ppm [5]: ≥ 80%

Compound: CCC(=O)NCc1cc(OC[C@H](C)N(COC)S(=O)(=O)C(F)(F)F)cnc1Cl [P-5, N-[[2-chloro-5-[(2S)-2-[methoxymethyl(tri-fluoromethylsulfonyl)-amino]propoxy]-3-pyridyl]methyl]propan-amide]
- mortality at 200 ppm [1]: ≥ 80%
- mortality at 12 ppm [2]: ≥ 80%
- inhibition at 200 ppm [3]: ≥ 80%

Compound: C[C@@H](COc1ccc(Cl)c(CNC(=O)C2CSC2)c1)NS(=O)(=O)C(F)(F)F [P-6]
- mortality at 12 ppm [2]: ≥ 80%

Compound: C[C@@H](COc1ccc(Cl)c(CNC(=O)C2CCC2)c1)NS(=O)(=O)C(F)(F)F [P-7]
- mortality at 12 ppm [2]: ≥ 80%
- percent effect (mortality or growth inhibition) at 200 ppm [4]: ≥ 80%

Compound: C[C@@H](COc1ccc(Cl)c(CNC(=O)C2CCC2)c1)N(C(=O)C1CCC1)S(=O)(=O)C(F)(F)F [P-8]
- mortality at 12 ppm [2]: ≥ 80%
- percent effect (mortality or growth inhibition) at 200 ppm [4]: ≥ 80%

Compound: C[C@@H](COc1cnc(Cl)c(CNC(=O)C2CC2)c1)NS(=O)(=O)C(F)(F)F [P-9, N-[[2-chloro-5-[(2S)-2-(trifluoromethylsulfon-ylamino)propoxy]-3-pyridyl]methyl]cyclo-propanecarboxamide]
- mortality at 12 ppm [2]: ≥ 80%
- percent effect (mortality or growth inhibition) at 200 ppm [4]: ≥ 80%

Compound: CCC(=O)NCc1cc(OC[C@H](C)NS(=O)(=O)C(Cl)Cl)ccc1Cl [P-10]
- mortality at 12 ppm [2]: ≥ 80%

Compound: CCC(=O)NCc1cc(OC[C@H](C)NS(=O)(=O)C(F)F)ccc1Cl [P-11]
- mortality at 12 ppm [2]: ≥ 80%
- percent effect (mortality or growth inhibition) at 200 ppm [4]: ≥ 80%

Compound: CCC(=O)NCc1cc(OC[C@H](C)NS(=O)(=O)c2ccc(C#N)c(Cl)c2)ccc1Cl [P-12, N-[[2-chloro-5-[(2S)-2-[(3-chloro-4-cyano-phenyl)sulfonylamino]propoxy]phenyl]meth-yl]propanamide]
- percent effect (mortality or growth inhibition) at 200 ppm [6]: ≥ 80%

Compound: CCC(=O)NCc1cc(OC[C@H](C)NS(=O)(=O)c2cnc(Cl)c(Cl)c2)ccc1Cl [P-13, N-[[2-chloro-5-[(2S)-2-[(5,6-dichloro-3-pyridyl)sulfonylamino]propoxy]phenyl]meth-yl]propanamide]
- percent effect (mortality or growth inhibition) at 200 ppm [6]: ≥ 80%
- percent effect (mortality or growth inhibition) at 200 ppm [4]: ≥ 80%

Compound: CCC(=O)NC1(c2cc(OC[C@H](C)NS(=O)(=O)C(F)(F)F)ccc2Cl)CC1 [P-14, N-[1-[2-chloro-5-[(2S)-2-(trifluoromethylsul-fonylamino)propoxy]phenyl]cyclopropyl] propanamide]
- percent effect (mortality or growth inhibition) at 200 ppm [6]: ≥ 80%

Compound: CCC(=O)NC(C)(C)c1cc(OC[C@H](C)NS(=O)(=O)C(F)(F)F)ccc1Cl [P-15, N-[1-[2-chloro-5-[(2S)-2-(trifluoromethylsul-fonylamino)propoxy]phenyl]-1-methylethyl] propanamide]
- mortality at 200 ppm [5]: ≥ 80%

Compound: COCC(=O)NCc1cc(OC[C@H](C)N(C(=O)COC)S(=O)(=O)C(F)(F)F)ccc1Cl [P-16, N-[[2-chloro-5-[(2S)-2-[(2-methoxyacetyl)-(trifluoromethylsulfon-yl)amino]propoxy]phenyl]methyl]-2-methoxy-acetamide]
- mortality at 12 ppm [2]: ≥ 80%
- inhibition at 200 ppm [3]: ≥ 80%

Compound: C[C@@H](COc1cnc(Cl)c(CNC(=O)CC2CC2)c1)NS(=O)(=O)C(F)(F)F [P-21, N-[[2-chloro-5-[(2S)-2-(trifluoromethylsul-fonylamino)propoxy]-3-pyridyl]methyl]-2-cyclopropyl-acetamide]
- mortality at 12 ppm [2]: ≥ 80%
- inhibition at 200 ppm [3]: ≥ 80%

Compound: C[C@@H](COc1cnc(Cl)c(CNC(=O)C2CCC2(F)F)c1)NS(=O)(=O)C(F)(F)F (stereo partly shown) [P-22]
- inhibition at 200 ppm [9]: ≥ 80%

Compound: C[C@@H](COc1cnc(Cl)c(CNC(=O)C2(C#N)CC2)c1)NS(=O)(=O)C(F)(F)F [P-23, N-[[2-chloro-5-[(2S)-2-(trifluoromethylsul-fonylamino)propoxy]-3-pyridyl]methyl]-1-cyano-cyclopropane-carboxamide]
- inhibition at 200 ppm [3]: ≥ 80%

Compound: C[C@@H](COc1cnc(Cl)c(CNC(=O)C2CCC2)c1)NS(=O)(=O)C(F)(F)F [P-24]
- inhibition at 200 ppm [9]: ≥ 80%
- mortality at 12 ppm [2]: ≥ 80%
- inhibition at 200 ppm [3]: ≥ 80%

Compound: C[C@@H](COc1cnc(Cl)c(CNC(=O)C23CC(C(F)(F)F)(C2)C3)c1)NS(=O)(=O)C(F)(F)F [P-25, N-[[2-chloro-5-[(2S)-2-(trifluoromethylsulfon-ylamino)propoxy]-3-pyridyl]methyl]-3-(tri-fluoromethyl)bicyclo [1.1.1]pentane-1-carbox-amide]
- inhibition at 200 ppm [9]: ≥ 80%

Compound: C[C@@H](COc1cnc(Cl)c(CNC(=O)C2CCCO2)c1)NS(=O)(=O)C(F)(F)F (stereo partly shown) [P-27]
- inhibition at 200 ppm [3]: ≥ 80%

Compound: C[C@@H](COc1cnc(Cl)c(CNC(=O)C(F)(Cl)Cl)c1)NS(=O)(=O)C(F)(F)F [P-29, 2,2-dichloro-N-[[2-chloro-5-[(2S)-2-(trifluoromethylsul-fonylamino)propoxy]-3-pyridyl]methyl]-2-fluoro-acetamide]
- inhibition at 200 ppm [3]: ≥ 80%

Compound: C[C@@H](COc1cnc(Cl)c(CNC(=O)CC2CC2(Cl)Cl)c1)NS(=O)(=O)C(F)(F)F (stereo partly shown) [P-30]
- inhibition at 200 ppm [3]: ≥ 80%

Compound: C[C@@H](COc1cnc(Cl)c(CNC(=O)C(F)F)c1)NS(=O)(=O)C(F)(F)F [P-32, N-[[2-chloro-5-[(2S)-2-(trifluoromethylsul-fonylamino)propoxy]-3-pyridyl]methyl]-2,2-difluoro-acetamide]
- mortality at 12 ppm [2]: ≥ 80%

Compound: C[C@@H](COc1cnc(Cl)c(CNC(=O)C2CC(F)(F)C2)c1)NS(=O)(=O)C(F)(F)F [P-35, N-[[2-chloro-5-[(2S)-2-(trifluoromethylsul-fonylamino)propoxy]-3-pyridyl]methyl]-3,3-difluoro-cyclobutane-carboxamide]
- inhibition at 200 ppm [9]: ≥ 80%
- inhibition at 200 ppm [3]: ≥ 80%
